Assay: logP by HPLC on reversed-phase column (C 18), EEC Directive 79/831 Annex V.A8
Assay type: physicochemical
Conditions: not given

With `CCCCCC(=O)Nc1cccc(CO/N=C(\c2cccc(C)n2)n2nnnc2C)n1` [compound 92, O-[2-(Pentylcarbonylamino)pyridin-6-yl]methyl-(6-methylpyridin-2-yl)-(5-methyltetrazol-1-yl)methanone Oxime] as the compound, how does the chromatographic logP read?
Its chromatographic logP is 3.43.

With `Cc1nnnn1/C(=N/OCc1csc(NC(=O)C(C)(C)C)n1)c1ccc(Cl)nc1` [compound 31] as the compound, how does the chromatographic logP read?
The chromatographic logP was 2.9.

Which chromatographic logP does the source give for `Cc1cccc(/C(=N\OCc2cccc(N)n2)n2nnnc2C)n1` [compound 87, O-(2-Aminopyridin-6-yl)methyl-(6-methylpyridin-2-yl)-(5-methyltetrazol-1-yl)methanone oxime] here?
Its chromatographic logP is 1.18.

For `CCCCCC(=O)Nc1nc(CO/N=C(\c2ncccc2C)c2nnnn2C)cs1` [compound 158, O-(2-Pentylcarbonylmino-1,3-thiazol-4-yl)methyl-(3-methylpyridin-2-yl)-(1-methyltetrazol-5-yl)methanone oxime], which chromatographic logP is on record?
Its chromatographic logP is 2.94.

For `Cc1cccnc1/C(=N\OCc1csc(N)n1)c1nnnn1C` [compound 157, O-(2-Amino-1,3-thiazol-4-yl)methyl-(3-methylpyridin-2-yl)-(1-methyltetrazol-5-yl)methanone Oxime], which chromatographic logP is on record?
Its chromatographic logP is 1.04.

Same assay, conditions: HPLC reversed-phase C 18, 40° C., 0.1% aqueous formic acid and acetonitrile gradient

For `Cc1nnnn1C(=NOCc1csc(NC(=O)C2CCCCC2)n1)c1ccc(Cl)nc1` [compound 32], which LogP is on record?
Its LogP is 3.16.

With `Cc1cccc(C(=NOCc2noc(-c3ccc(C(C)(C)C)cc3)n2)n2nnnc2C)n1` [compound 93] as the compound, how does the LogP read?
Its LogP is 4.5.

With `CCCCCC(=O)Nc1nc(CON=C(c2ccccn2)n2nnnc2C)cs1` [compound 4] as the compound, how does the LogP read?
Its LogP is 2.7.

For `Cc1cccc(C(=NOCc2noc(-c3ccccc3)n2)n2nnnc2C)n1` [compound 95], which LogP is on record?
Its LogP is 3.11.

With `Cc1nnnn1C(=NOCc1csc(NC(=O)NC(C)(C)C)n1)c1ccccn1` [compound 28] as the compound, how does the LogP read?
The LogP was 2.16.

Which LogP does the source give for `CCCC(=O)Nc1cccc(CON=C(c2cccc(C)n2)n2nnnc2C)n1` [compound 90] here?
Its LogP is 2.7.

With `Cc1nnnn1C(=NOCc1nc(Cc2ccccc2)no1)c1ccc(Cl)nc1` [compound 49] as the compound, how does the LogP read?
Its LogP is 3.09.

With `CCCCCCCCOC(=O)Nc1nc(CON=C(c2cnccc2OC)n2nnnc2C)cs1` [compound 147] as the compound, how does the LogP read?
The LogP was 5.03.

With `Cc1nnnn1C(=NOCc1csc(NC(=O)C2CC2)n1)c1ccc(Cl)nc1` [compound 39] as the compound, how does the LogP read?
The LogP was 2.36.

With `Cc1nnnn1C(=NOCc1csc(NC(=O)NC2CC2)n1)c1ccc(Cl)nc1` [compound 48] as the compound, how does the LogP read?
Its LogP is 1.98.

Which LogP does the source give for `Cc1cccc(C(=NOCc2csc(NC(=O)c3ccccc3)n2)n2nnnc2C)n1` [compound 83] here?
Its LogP is 2.78.

For `Cc1nnnn1C(=NOCc1csc(NC(=O)c2ccco2)n1)c1ccc(Cl)nc1` [compound 69], which LogP is on record?
The LogP was 2.46.

For `CCCNC(=O)Nc1nc(CON=C(c2ccccn2)n2nnnc2C)cs1` [compound 19], which LogP is on record?
The LogP was 1.95.

Which LogP does the source give for `COCCC(=O)Nc1nonc1CON=C(c1ccc(Cl)nc1)n1nnnc1C` [compound 72] here?
The LogP was 2.17.

With `CCCNC(=O)Nc1nc(CON=C(c2cccc(C)n2)n2nnnc2C)cs1` [compound 103] as the compound, how does the LogP read?
The LogP was 2.17.

Which LogP does the source give for `Cc1nnnn1C(=NOCc1nonc1N)c1ccc(Cl)nc1` [compound 33] here?
Its LogP is 1.88.

For `C=C(C)C(=O)Nc1nc(CON=C(c2ccccn2)n2nnnc2C)cs1` [compound 3], which LogP is on record?
Its LogP is 2.06.

For `COc1ncccc1C(=NOCc1cccc(N)n1)n1nnnc1C` [compound 152], which LogP is on record?
Its LogP is 1.03.

For `COc1ncccc1C(=NOCc1csc(N)n1)n1nnnc1C` [compound 154], which LogP is on record?
The LogP was 1.24.

For `COc1cccc(CNC(=O)Nc2nc(CON=C(c3cccc(C)n3)n3nnnc3C)cs2)c1` [compound 104], which LogP is on record?
Its LogP is 2.59.

Which LogP does the source give for `Cc1nnnn1C(=NOCc1noc(-c2ccc(C(C)(C)C)cc2)n1)c1ccc(Cl)nc1` [compound 50] here?
The LogP was 4.47.

Which LogP does the source give for `Cc1cccc(C(=NOCc2csc(NC(=O)NCCc3ccc(Cl)c(Cl)c3)n2)n2nnnc2C)n1` [compound 102] here?
The LogP was 3.34.

For `COc1ccc(C(=O)Nc2nc(CON=C(c3ccc(Cl)nc3)n3nnnc3C)cs2)cc1` [compound 57], which LogP is on record?
Its LogP is 2.97.

For `Cc1nc(CON=C(c2ccccn2)n2nnnc2C)cs1` [compound 7], which LogP is on record?
Its LogP is 1.76.

With `Cc1nnnn1C(=NOCc1csc(NC(=O)c2ccccc2)n1)c1ccc(Cl)nc1` [compound 36] as the compound, how does the LogP read?
Its LogP is 2.87.

For `Cc1nc(CON=C(c2ccc(Cl)nc2)n2nnnc2C)cs1` [compound 40], which LogP is on record?
Its LogP is 2.33.

With `Cc1nnnn1C(=NOCc1csc(NC(=O)c2cccs2)n1)c1ccc(Cl)nc1` [compound 59] as the compound, how does the LogP read?
Its LogP is 2.82.

Which LogP does the source give for `COC(=O)c1coc(CON=C(c2cccc(C)n2)n2nnnc2C)n1` [compound 98] here?
Its LogP is 2.01.

For `Cc1nnnn1C(=NOCc1csc(NC(=O)C2CCCC2)n1)c1ccc(Cl)nc1` [compound 58], which LogP is on record?
Its LogP is 2.97.

With `Cc1cccc(C(=NOCc2csc(NC(=O)NCCc3ccc(F)cc3)n2)n2nnnc2C)n1` [compound 105] as the compound, how does the LogP read?
The LogP was 2.78.

Which LogP does the source give for `COc1ccccc1CNC(=O)Nc1nc(CON=C(c2cccc(C)n2)n2nnnc2C)cs1` [compound 108] here?
The LogP was 2.69.

For `Cc1cccc(C(=NOCc2csc(N)n2)n2nnnc2C)n1` [compound 80], which LogP is on record?
Its LogP is 1.2.

Which LogP does the source give for `Cc1cccc(C(=NOCc2nsc(N)n2)n2nnnc2C)n1` [compound 96] here?
The LogP was 1.59.

With `Cc1nnnn1C(=NOCc1csc(NC(=O)NCc2ccccc2)n1)c1ccccn1` [compound 15] as the compound, how does the LogP read?
Its LogP is 2.15.

For `Cc1nnnn1C(=NOCc1csc(N)n1)c1ccccn1` [compound 1], which LogP is on record?
The LogP was 0.83.

With `Cc1ccc(OC(=O)Nc2nc(CON=C(c3ccc(Cl)nc3)n3nnnc3C)cs2)cc1` [compound 76] as the compound, how does the LogP read?
The LogP was 3.48.

Which LogP does the source give for `COCCOCC(=O)Nc1nc(CON=C(c2ccc(Cl)nc2)n2nnnc2C)cs1` [compound 78] here?
Its LogP is 2.4.

With `Cc1nnnn1C(=NOCc1nsc(N)n1)c1ccc(Cl)nc1` [compound 44] as the compound, how does the LogP read?
The LogP was 1.78.

Which LogP does the source give for `CCCC(=O)Nc1nc(CON=C(c2cccc(C)n2)n2nnnc2C)cs1` [compound 82] here?
Its LogP is 2.38.

Which LogP does the source give for `COCCC(=O)Nc1nc(CON=C(c2cnccc2OC)n2nnnc2C)cs1` [compound 138] here?
Its LogP is 2.25.

With `COc1ccc(CCNC(=O)Nc2nc(CON=C(c3ccccn3)n3nnnc3C)cs2)cc1` [compound 22] as the compound, how does the LogP read?
Its LogP is 2.44.

With `Cc1nnnn1C(=NOCc1nsc(N)n1)c1ccccn1` [compound 21] as the compound, how does the LogP read?
The LogP was 1.3.

Which LogP does the source give for `CCCCCC(=O)Nc1nc(CON=C(c2cnccc2OC)n2nnnc2C)cs1` [compound 136] here?
The LogP was 3.44.

For `Cc1nnnn1C(=NOCc1csc(N)n1)c1ccc(Cl)nc1` [compound 34], which LogP is on record?
The LogP was 1.27.

With `Cc1nnnn1C(=NOCc1csc(NC(=O)C2CC2)n1)c1ccccn1` [compound 14] as the compound, how does the LogP read?
The LogP was 1.99.

For `Cc1cccc(C(=NOCc2noc(-c3cccc(C(F)(F)F)c3)n2)n2nnnc2C)n1` [compound 86], which LogP is on record?
The LogP was 3.67.

Which LogP does the source give for `COc1ncccc1C(=NOCc1nc(N)sc1Br)n1nnnc1C` [compound 153] here?
The LogP was 2.27.

For `COc1ccncc1C(=NOCc1csc(NC(=O)c2ccccc2)n1)n1nnnc1C` [compound 137], which LogP is on record?
Its LogP is 3.13.

Which LogP does the source give for `Cc1nnnn1C(=NOCc1noc(-c2ccco2)n1)c1ccccn1` [compound 11] here?
Its LogP is 2.38.

With `COc1ccncc1C(=NOCc1csc(NC(=O)CCc2ccccc2)n1)n1nnnc1C` [compound 139] as the compound, how does the LogP read?
Its LogP is 3.31.

For `Cc1nnnn1C(=NOCc1cccc(N)n1)c1ccccn1` [compound 9], which LogP is on record?
The LogP was 0.76.

For `C=C(C)C(=O)Nc1nc(CON=C(c2cccc(C)n2)n2nnnc2C)cs1` [compound 97], which LogP is on record?
Its LogP is 2.4.

With `Cc1cccnc1C(=NOCc1csc(NC(=O)Cc2ccccc2)n1)c1nnnn1C` [compound 159] as the compound, how does the LogP read?
Its LogP is 2.62.

For `Cc1cccc(C(=NOCc2csc(NC(=O)NCCc3ccc(Cl)cc3Cl)n2)n2nnnc2C)n1` [compound 106], which LogP is on record?
The LogP was 3.43.

Which LogP does the source give for `Cc1cccc(C(=NOCc2nonc2N)n2nnnc2C)n1` [compound 84] here?
The LogP was 1.94.

Which LogP does the source give for `Cc1cccc(C(=NOCc2csc(NC(=O)NCCc3ccccc3)n2)n2nnnc2C)n1` [compound 107] here?
Its LogP is 2.72.

Which LogP does the source give for `Cc1nnnn1C(=NOCc1nonc1N)c1ccccn1` [compound 6] here?
The LogP was 1.52.

For `Cc1nnnn1C(=NOCc1csc(NC(=O)NC2CC2)n1)c1ccccn1` [compound 26], which LogP is on record?
The LogP was 1.61.

Which LogP does the source give for `Cc1nnnn1C(=NOCc1csc(NC(=O)NCCc2cccc(Cl)c2)n1)c1ccccn1` [compound 24] here?
Its LogP is 2.79.

Reference: patent US8129415B2
